The test system of the test is plasma cortisol. Nature of the test: Plasma cortisol concentrations in piglets after processing (castration, tail docking, teeth clipping). It is filed as in vivo, swine. On the procedure: Castration, teeth clipping, and tail docking were completed for each male piglet between the 6-h and 8-h blood collection time points. […] Castration was performed using a number 10 scalpel blade to making two vertical incisions approximately 2-3 cm long in the skin covering the testicles. The testicles were then marsupialized, and manual pressure was applied to the spermatic cord until it separated from the piglet's body. Side-cutter pliers were used to remove the tail at the 6th coccygeal vertebral body, and the canine teeth were filed flush with the gingival tissue.
To accommodate blood volume restrictions, blood samples for cortisol determination were collected from three randomly selected piglets/litter (two male and one female piglet at each time point) prior to processing (6 h after firocoxib injection in the sow) and after processing at approximately […] after drug injection in the sow. These time points corresponded to approximately 0, 2, 6, 18, 42, 66 and 90 h after processing. The blood for cortisol analysis was collected in 3-mL heparinized blood collection tubes (BD Vacutainer, Franklin Lakes, N.J.) and then centrifuged for 10 min at 1,500×g. The plasma was collected, then immediately frozen and stored at −80° C. The analyses for plasma cortisol concentrations were performed within 60 d after sample collection and within 10 consecutive days once the analyses were started. Plasma cortisol concentrations were determined using a commercial radioimmunoassay kit (CortiCote I-125, MP Biomedicals, Santa Ana, Calif.). […]
Plasma cortisol concentrations and ADG were analyzed using a nonlinear mixed-effects analysis incorporating both fixed effects and random effects (PROC GLMMIX; SAS university edition v9.04.01, SAS Institute, Cary, N.C.). […]
To account for the fact that not all the piglets were blood sampled at every time point due to blood volume restrictions in piglets, individual piglet peak cortisol concentrations (CortCmax) were calculated for each piglet after processing by visual inspection of the data. […]

SMILES strings stand for the structures. Entries after “also recorded” stand apart in the source; their conditions may differ.

Results on one molecule are retold here after patent publication US10434083B2, “Transmammary delivery of cyclooxygenase-2 inhibitors for analgesia in neonates” (Iowa State University Research Foundation, Inc., priority 2018, dated 2019).

As for `CC1(C)OC(=O)C(OCC2CC2)=C1c1ccc(S(C)(=O)=O)cc1` [firocoxib], for the setting “male piglets, sow dose 2.0 mg/kg vs 0.5 mg/kg (P=0.0397) and 1.0 mg/kg (P=0.0416)”, the “mean plasma cortisol concentration at 2±1 h after processing” value is reported as “lower mean plasma cortisol concentration”. Moreover, the “peak plasma cortisol of individual piglets (CortCmax)” value (male piglets, 0.5 mg/kg (P=0.014) and 1.5 mg/kg (P=0.05) groups higher than 2.0 mg/kg) is “significant treatment effect”. Moreover, under “piglets nursing sows given 0.5-2.0 mg/kg IM”, the “plasma cortisol concentrations after processing, dose dependence” value is given as “reduces plasma cortisol concentrations after processing in a dose-dependent manner; also recorded: dose-dependent reduction of plasma cortisol concentrations”.
